Key:
[1] = tested on: HIV in activated peripheral blood lymphocytes; test: Inhibition of HIV mediated cytopathic effects / p24 antigen production in activated peripheral blood lymphocytes; assay type: cell-based; settings: for p24 antigen production: activated PBL, about 7 days after infection, FIG. 2
Experimental: (§1) 1. […] All three viral strains were grown in the Tissue Culture Laboratory of the AIDS Activity Division of San Francisco General Hospital where titers of […] infectious units per ml were routinely achieved.
(§2) 4. HIV soluble p24 antigen detection: Soluble p24 antigens were measured with the Abbott HIV antigen detection system.
(b) Although the VB T lymphoma cell line behaves in a similar manner to peripheral blood CD4 positive T lymphocytes in regard to HIV induced cytopathic effects, the above described experiments were performed on phytohemagglutinin (PHA) activated lymphocytes to determine whether lymphocytes are more or less sensitive to Compounds A and B than is the VB cell line. In this assay system, at the time that multinucleated giant cells appeared within infected lymphocyte cultures, the supernatants were analyzed for the presence of HIV p24 antigens and were titered on indicator VB lymphoma cells to determine the titer of infectious virus present at each point.
To test whether the effects of compounds A and B on acute VB T lymphoma infection would be mimicked by activated peripheral blood lymphocytes (PBC), HIV at a multiplicity of infection of one was added to lymphocytes that had been activated for 48 hours with 2 μg per ml of PHA. After the initial infection for one hour, the activated lymphocytes were washed and resuspended for the one week of culture. Multinucleated giant cells began to form approximately 7 days after the initial infection, at which time the culture supernatants were harvested and tested for the presence of HIV p24 antigens. The accumulation of HIV p24 antigens in the supernatant is representative of production of HIV from infected cells.

HIV in human macrophages = test: Inhibition of HIV production in normal human macrophages (supernatant p24, acute infection); assay type: cell-based
Experimental: as §1
(§3) 2. Source of cells: The VB cell line used in Example 1 is a T lymphoma cell line that is highly susceptible to infection with HIV, and expresses high levels of cell surface CD4 molecules. This cell line forms syncytia within two days after infection with all strains of HIV tested to date. […] This is used to quantitate infection in the absence of syncytial formation, infection being quantitated by immunofluorescence assays. The HXB/H9 cell line (Example 6) is an H9 cell population that chronically produces the HTLV-IIIB strain of HIV and is utilised in experiments testing antiviral effects on chronically infected cell lines. Human macrophages were prepared from peripheral blood mononuclear cells either obtained from the blood bank as a buffy coat, or as a leukophoresis preparation. Crowe et al. supra have devised an assay system that allows quantitation of HIV infection, and inhibition of infection using immunocytofluorographic analysis. In order to quantitate HIV infection in macrophages, they grow macrophages in Teflon (Trade Mark) culture vessels which maintain macrophages in suspension in vitro culture for up to six months. Cell surface and cytoplasmic immunofluorescence staining is then performed to quantitate antigens in macrophages by flow cytometry.
as §2
(c) To test whether Compounds A and B were effective at blocking acute infection of macrophages, macrophages from Teflon cultures were exposed at a multiplicity of 1 to HIV-DV in the presence or absence of various concentrations of drug (Examples 3-5). Normally, HIV expression peaks in human macrophages at approximately ten days after initial infection. Therefore, after infection for one hour at room temperature, followed by a wash and resuspension of the macrophages in various drug concentrations, macrophages were stained for the presence of p24 antigen at day ten. Culture supernatants from these macrophages were assayed for the presence of soluble p24, and infectious virus as described above.
To test whether compounds A and B might be active at inhibiting infection of normal human macrophages, a spectrum of drug concentrations were tested for inhibition of acute infection, and inhibition of HIV expression in chronically infected macrophages. […] After acute infection (one hour) cells were incubated in various concentrations of compounds A and B, and 7 days after the initial infection supernatants were harvested for p24 antigen quantitation. […]

[2] = tested on: HIV in chronically infected human macrophages; test: Antiviral testing of chronically HIV infected macrophages; assay type: cell-based
Excerpt: as §3
3. Flow cytometry: An Ortho Cytofluorgraf II-S (Trade Mark) that has a biohazard containment flow cell was used for analysis of HIV infected samples. HIV p24 antigens were detected utilizing a mouse monoclonal anti-p24 (du Pont), and mouse antibodies were identified utilizing an FITC conjugated goat anti-mouse IgG.
6. Analysis of chronically infected cells: To determine whether compounds A and B are effective at inhibiting HIV expression in macrophages and chronically infected T cells, the following experiments were performed. The chronically infected T cell line, HXB/H9 was exposed to various concentrations of drug for four days in vitro. At four days, the HXB cells were assayed for the presence of p24 intracytoplasmically, and supernatants were assayed for the presence of infectious virus as described above.
Because macrophages can be infected and produce HIV for very long periods of time without substantial loss of viability, chronically infected cells were tested, specifically a population that was between 30 and 50% HIV antigen positive, for inhibition of cytoplasmic HIV p24 antigen production. FIG. 5 indicates the results of three separate experiments carried out.

[3] = tested on: peripheral blood lymphocytes; test: Nonspecific toxicity to peripheral blood lymphocytes; assay type: cell-based, human
HIV = test: Use of dehydroepiandrosterone in AIDS therapy, twelve patients; assay type: in vivo, human patients
Experimental: Twelve patients all of whom were sero-positive for HIV and had been diagnosed as suffering from AIDS were treated with DHEA for up to six months. The DHEA was administered in the form of hard gelatin capsules containing 100 mg of DHEA and at a rate of 100 mg to 600 mg per day. The vast majority being on 500 mg per day in divided doses. The patients were all homosexual or bisexual males with an average age of 34.5 years and an average weight of 69.6 kg.
Past and present HIV clinical manifestations included: unexplained diarrhoea, Kaposis Sarcoma, Herpes Zoster, Oral Candidiasis, Lymphadenopathy, Oral Hairy Leucoplakia, involuntary weight loss, dermal mycoses and Stapholococcal skin infections.
All of the patients were in an advanced stage of AIDS at the commencement of the trial and normally further deterioration of their condition, or even death, would have been expected over the six month period of the trial. […] Patient 7 gained 8 kg over five months.

NADH oxidase = settings: cited from earlier work
complement activation = settings: cited from earlier work
[4] = in vivo; cited from earlier work

C[C@]12CC[C@H](O)CC1=CC[C@@H]1[C@@H]2CC[C@]2(C)C(=O)CC[C@@H]12 [A, dehydroepiandrosterone]
p24 antigen production ([1]; 10^-4 molar): moderately inhibited
p24 antigen production ([1]; 10^-5 molar): slightly less inhibited
antiviral effects in comparison with AZT, lymphocytes ([1]; acute infection): inferior
antiviral effect in acute infection studies of lymphocytes ([1]; acute infection, conclusions): mild antiviral effect
decrease in production of HIV p24 antigens (supernatant) (HIV in human macrophages; 10^-4 through 10^-8 molar, 7 days after acute infection, FIG. 3): approximately 50%
HIV infection and HIV expression in macrophages (HIV in human macrophages; in vitro, reproducible, six separate monocyte/macrophage donors): inhibit HIV infection and HIV expression in macrophages
inhibition compared with inhibition of acute infection of macrophages ([2]; 10^-4 and 10^-5 molar, FIG. 5 vs FIG. 4): somewhat less than the inhibition of acute infection of macrophages
inhibition of cytoplasmic HIV p24 antigen production in chronically infected macrophages ([2]; both 10^-4 and 10^-5 molar, three experiments, FIG. 5): some inhibition
toxicity with the PBL cultures ([3]; 10^-4 and 10^-5 molar): No appreciable toxicity
toxicity to peripheral blood lymphocytes ([3]; 10^-4 to 10^-8 molar): nor was there appreciable toxicity
patients gaining weight (HIV; of twelve patients, up to six months): four
deterioration in condition (HIV; oral, 100 mg to 600 mg per day, up to six months, twelve advanced AIDS patients): no serious deterioration in condition
weight gain of Patient 7 (HIV; over five months): 8 kg
effect on NADH oxidase (NADH oxidase): inhibitory effect
complement activation (complement activation): inhibits complement activation
metabolic disorders and liver cirrhosis [4]: suppress some of the metabolic disorders and liver cirrhosis
pain in ischemic heart disease, especially angina pectoris [4]: reduces pain
